Assay results published in patent publication US9676756B2 (PORTOLA PHARMACEUTICALS, INC., priority 2012, dated 2017).

Assays:
Assay type in all cases: biochemical
[1] = biological target: T1, JAK1 (Homo sapiens, UniProt P23458); experiment: JAK tyrosine phosphorylation activity, Z'-LYTE FRET kinase assay; settings: catalytic domain recombinant kinase, Tyr6 peptide; for IC50: read-out: JAK1 IC50 % Inhibition
T1 construct: 5 μl of catalytic domain recombinant Kinase enzyme+Tyr peptide substrate (Invitrogen, CA); purchased Invitrogen
T1 sequence (P23458 875-1153 limits assumed): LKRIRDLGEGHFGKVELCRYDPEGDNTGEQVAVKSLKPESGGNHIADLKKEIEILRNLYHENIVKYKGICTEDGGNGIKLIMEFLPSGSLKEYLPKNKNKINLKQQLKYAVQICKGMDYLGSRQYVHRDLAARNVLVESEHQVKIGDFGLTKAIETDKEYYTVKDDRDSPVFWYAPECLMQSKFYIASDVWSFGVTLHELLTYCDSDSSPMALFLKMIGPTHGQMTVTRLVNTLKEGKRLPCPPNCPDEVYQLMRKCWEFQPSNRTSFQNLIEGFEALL
Experimental: (§1) JAK and SYK tyrosine phosphorylation activity is measured using the Z'-LYTE™ Technology developed by Invitrogen Corporation (Carlsbad, Calif.). For JAK1, JAK2 and JAK3 the Z'-LYTE™ Kinase Assay Kit-Tyr6 Peptide (part number PV4122) was used. The Z'-LYTE™ biochemical assay employs a fluorescence resonance energy transfer (FRET) coupled-enzyme format and is based on the differential sensitivity of phosphorylated and non-phosphorylated peptides to proteolitic cleavage. The assay uses a synthetic peptide substrate that is labelled with a donor fluorophore (coumarin) and an acceptor fluorophore (fluorescein) that make up a FRET pair. In the primary reaction (the Kinase Reaction), the kinase transfers the γ-phosphate of ATP to a single tyrosine residue on the substrate, while the presence of a kinase inhibitor in the primary reaction suppresses phosphorylation. In the secondary reaction (the Development Reaction), a site-specific protease (the Development Reagent) is added. The development buffer quenches the Kinase Reaction, while the protease recognizes and cleaves non-phosphorylated Z'-LYTE™ peptide substrate. Cleavage disrupts FRET between the donor and acceptor fluorophores on the non-phosphorylated substrate, while uncleaved, phosphorylated substrate maintains FRET.
(§2) To test the ability of candidate molecules to inhibit JAK tyrosine phosphorylation activity, molecules are reconstituted in 100% DMSO and serially diluted 1:10 in polypropylene v-bottom microtiter plates. The candidate molecules are then diluted 1:25 into kinase buffer and 2.5 μl transferred into duplicate wells of a 384 well low volume black microtiter assay plate (Corning, USA). The final DMSO concentration in the assay is 1%. The kinase reaction contains 2.5 μl of a candidate molecule, 5 μl of catalytic domain recombinant Kinase enzyme+Tyr peptide substrate (Invitrogen, CA) and 2.5 μl ATP (Invitrogen, CA). The kinase reaction is allowed to precede for 1 hour at room temperature. The protease reaction is initiated by the addition of 5 μl Development Reagent (Invitrogen, CA). After 1 hour incubation at room temperature the fluorescence is measured using a FlexStation plate reader (Molecular Devices, Sunnyvale, Calif.). The reader settings used are as follows: Fluorescence mode, endpoint, top read, excitation 400 nm, emission 445 nm and 520 nm. Auto Cutoff 435 nm and 515 nm, PMT sensitivity high, 6 reads per well. Inhibition of JAK activity is calculated as the percent phosphorylation of substrate in the presence of inhibitor compared to the percent phosphorylation of substrate in the absence of inhibitor. IC50's were derived using Xlfit 4.3 (IDBS, UK), 4 parameter logistic model 205: Y=(A+((B−A)/(1+((C/x)^D)))).

[2] = biological target: T2, JAK2 (Homo sapiens, UniProt O60674); experiment: as above; settings: catalytic domain recombinant kinase, Tyr6 peptide
T2 construct: 5 μl of catalytic domain recombinant Kinase enzyme+Tyr peptide substrate (Invitrogen, CA); purchased Invitrogen
T2 sequence (O60674 849-1124 limits assumed): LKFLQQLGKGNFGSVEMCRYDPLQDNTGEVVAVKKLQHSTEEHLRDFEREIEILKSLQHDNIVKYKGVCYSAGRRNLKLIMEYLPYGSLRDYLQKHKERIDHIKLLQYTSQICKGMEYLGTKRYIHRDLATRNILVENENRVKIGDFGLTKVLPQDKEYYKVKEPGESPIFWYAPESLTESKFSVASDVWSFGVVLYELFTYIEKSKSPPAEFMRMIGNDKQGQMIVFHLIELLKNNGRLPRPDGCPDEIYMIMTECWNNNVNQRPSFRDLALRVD
Experimental: as §1, §2

[3] = biological target: T3, JAK3 (Homo sapiens, UniProt P52333); experiment: as above; settings: catalytic domain recombinant kinase, Tyr6 peptide
T3 construct: 5 μl of catalytic domain recombinant Kinase enzyme+Tyr peptide substrate (Invitrogen, CA); purchased Invitrogen
T3 sequence (P52333 822-1111 limits assumed): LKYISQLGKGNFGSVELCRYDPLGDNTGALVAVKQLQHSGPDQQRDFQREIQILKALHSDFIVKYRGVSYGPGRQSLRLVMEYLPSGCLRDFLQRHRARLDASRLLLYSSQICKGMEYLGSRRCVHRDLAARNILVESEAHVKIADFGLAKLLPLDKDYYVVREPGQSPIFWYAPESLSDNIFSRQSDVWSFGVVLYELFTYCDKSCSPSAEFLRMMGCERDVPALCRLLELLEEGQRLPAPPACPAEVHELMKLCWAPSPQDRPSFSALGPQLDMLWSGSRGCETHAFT
Experimental: as §1, §2

[4] = biological target: T4, full length active recombinant SYK enzyme (Homo sapiens, UniProt P43405); experiment: SYK tyrosine phosphorylation activity, LANCE TR-FRET kinase assay; settings: 1 nM SYK, 100 μM ATP, 1 hour at room temperature
T4 construct: full length active recombinant SYK enzyme (Millipore, CA); purchased Millipore
Experimental: Potency of candidate molecules for inhibiting Syk tyrosine phosphorylation activity is assessed by measuring the ability of a test compound to inhibit Syk-mediated tyrosine phosphorylation of a Syk-specific substrate.
SYK tyrosine phosphorylation activity is measured using the LANCE™ Technology developed by Perkin Elmer Life and Analytical Sciences (Boston, Mass.). LANCE™ refers to homogeneous time resolved fluorometry applications using techniques such as time-resolved fluorescence resonance energy transfer assay (TR-FRET) (see generally for procedures in Perkin Elmer Application Note—How to Optimize a Tyrosine Kinase Assay Using Time Resolved Fluorescence-Based LANCE Detection, wwww.perkinelmer.com/lifesciences). The assay principle involves detection of a phosphorylated substrate using energy transfer from a phosphospecific europium-labeled antibody to streptavidin-allophycocyanin as an acceptor.
To test the ability of candidate molecules to inhibit SYK tyrosine phosphorylation activity, molecules are reconstituted in 30% DMSO and serially diluted 1:3 with the final dilution containing DMSO in the absence of the candidate molecule. The final DMSO concentration in the assay is 3%. Kinase assays are performed as a two part reaction. The first reaction is a kinase reaction that comprises a candidate molecule, full length active recombinant SYK enzyme (Millipore, CA) and biotin-labeled SYK-specific substrate biotin-[…]-OH. The second reaction involves termination of the kinase reaction and the simultaneous addition of the detection reagents-europium-labeled anti-phosphotyrosine reagent (Eu-W1024-PY100, Perkin Elmer, Boston, Mass.) and Streptavidin-Allophycocyanin detection reagent (SA-APC, Prozyme, CA). The kinase reaction is performed in a black U-bottom 96-well microtitre plate. The final reaction volume is 50 μL and contains a final concentration of 1 nM active SYK enzyme, 550 nM SYK-substrate, and 100 μM ATP diluted in a buffer containing 50 mM Tris pH 7.5, 5 mM MgCl2, and 1 mM DTT. The reaction is allowed to proceed for 1 hour at room temperature. The stop buffer contains 100 mM Tris pH 7.5, 300 mM NaCl2, 20 mM EDTA, 0.02% Brij35, and 0.5% BSA. The detection reagents are added to the reaction mixture at the following dilutions—1:500 for Eu-W1024-PY100 and 1:250 for SA-APC. The kinase reaction is terminated by the addition of 50 μL stop buffer containing the detection reagents. The detection is allowed to proceed for 1 hr at room temperature. Detection of the phosphorolated substrate in the absence and presence of inhibitors is measured in the TR-FRET instrument, Analyst HT (Molecular Probes, Sunnyvale, Calif.) and the condition for measurements are set up using CriterionHost Release 2.0 (Molecular Probes, Sunnyvale, Calif.). The settings used are a follows: excitation 360 nm, emission 665-7.5 nm, beam splitter 350 nm 50/50, flash 100 pulses, delay 60 us, integration 400 us, z-height 2 mm. Inhibition of SYK-tyrosine kinase activity is calculated as the maximum response observed in the presence of inhibitor, compared to that in the absence of inhibitor. IC50s are derived by non-linear regression analysis.

| JAK1 IC50 potency class [1] | JAK2 IC50 potency class [2] | JAK3 IC50 potency class [3] | IC50 [4] | IC50 [1] [µM] | Structure (SMILES) |
| --- | --- | --- | --- | --- | --- |
| +++ (0.10 uM<IC50<0.01 uM) | ++++ (0.01 uM<IC50<0.001 uM) | ++++ (0.01 uM<IC50<0.001 uM) | ++ (1.0 uM<IC50<0.10 uM) |  | COc1cc(Nc2ncc(C(N)=O)c(NC3CC3)n2)ccc1N1CCC(C(=O)N(C)C)CC1 [Compound 51, 4-(cyclopropylamino)-2-((4-(4-(dimethylcarbamoyl)piperidin-1-yl)-3-methoxyphenyl)amino)pyrimidine-5-carboxamide] |
| +++ (0.10 uM<IC50<0.01 uM) | ++++ (0.01 uM<IC50<0.001 uM) | ++++ (0.01 uM<IC50<0.001 uM) | +++ (0.10 uM<IC50<0.01 uM) |  | NC(=O)c1cnc(Nc2ccc(N3CCOCC3)c(F)c2)nc1NC1CC1 [Compound 54, 4-(cyclopropylamino)-2-((3-fluoro-4-morpholinophenyl)amino)pyrimidine-5-carboxamide] |
| +++ (0.10 uM<IC50<0.01 uM) | ++++ (0.01 uM<IC50<0.001 uM) | ++++ (0.01 uM<IC50<0.001 uM) | +++ (0.10 uM<IC50<0.01 uM) |  | NC(=O)c1cnc(Nc2ccc(C3CCN(S(=O)(=O)C4CC4)CC3)cc2)nc1NC1CC1 [Compound 2, 4-(cyclopropylamino)-2-((4-(1-(cyclopropylsulfonyl)piperidin-4-yl)phenyl)amino)pyrimidine-5-carboxamide] |
| +++ (0.10 uM<IC50<0.01 uM) | ++++ (0.01 uM<IC50<0.001 uM) | ++++ (0.01 uM<IC50<0.001 uM) | +++ (0.10 uM<IC50<0.01 uM) |  | CCS(=O)(=O)N1CCN(c2ccc(Nc3ncc(C(N)=O)c(NC4CC4)n3)cc2OC)CC1 [Compound 9, 4-(cyclopropylamino)-2-((4-(4-(ethylsulfonyl)piperazin-1-yl)-3-methoxyphenyl)amino)pyrimidine-5-carboxamide] |
| +++ (0.10 uM<IC50<0.01 uM) | ++++ (0.01 uM<IC50<0.001 uM) | ++++ (0.01 uM<IC50<0.001 uM) | +++ (0.10 uM<IC50<0.01 uM) |  | CCC(=O)N1CCC(c2ccc(Nc3ncc(C(N)=O)c(NC4CC4)n3)cc2)CC1 [Compound 7, 4-(cyclopropylamino)-2-((4-(1-propionylpiperidin-4-yl)phenyl)amino)pyrimidine-5-carboxamide] |
| +++ (0.10 uM<IC50<0.01 uM) | +++ (0.10 uM<IC50<0.01 uM) | ++++ (0.01 uM<IC50<0.001 uM) | +++ (0.10 uM<IC50<0.01 uM) |  | NC(=O)c1cnc(Nc2ccc(C3=CCNCC3)cc2)nc1NC1CC1 [Compound 56, 4-(cyclopropylamino)-2-((4-(1,2,3,6-tetrahydropyridin-4-yl)phenyl)amino)pyrimidine-5-carboxamide] |
| +++ (0.10 uM<IC50<0.01 uM) | +++ (0.10 uM<IC50<0.01 uM) | +++ (0.10 uM<IC50<0.01 uM) | ++ (1.0 uM<IC50<0.10 uM) |  | NC(=O)c1cnc(Nc2ccc(C3CCN(c4cccnc4)CC3)cc2)nc1NC1CC1 [Compound 17, 4-(cyclopropylamino)-2-((4-(1-(pyridin-3-yl)piperidin-4-yl)phenyl)amino)pyrimidine-5-carboxamide] |
|  | ++ (1.0 uM<IC50<0.10 uM) | ++ (1.0 uM<IC50<0.10 uM) | ++ (1.0 uM<IC50<0.10 uM) | > 1 | CCS(=O)(=O)N1CCN(c2c(F)cc(Nc3ncc(C(N)=O)c(NC4CC4)n3)cc2F)CC1 [Compound 50, 4-(cyclopropylamino)-2-((4-(4-(ethylsulfonyl)piperazin-1-yl)-3,5-difluorophenyl)amino)pyrimidine-5-carboxamide] |
| +++ (0.10 uM<IC50<0.01 uM) | +++ (0.10 uM<IC50<0.01 uM) | ++++ (0.01 uM<IC50<0.001 uM) | +++ (0.10 uM<IC50<0.01 uM) |  | COC(=O)N1CCC(c2ccc(Nc3ncc(C(N)=O)c(NC4CC4)n3)cc2)CC1 [Compound 10, methyl 4-(4-((5-carbamoyl-4-(cyclopropylamino)pyrimidin-2-yl)amino)phenyl)piperidine-1-carboxylate] |
| +++ (0.10 uM<IC50<0.01 uM) | ++++ (0.01 uM<IC50<0.001 uM) | ++++ (0.01 uM<IC50<0.001 uM) | +++ (0.10 uM<IC50<0.01 uM) |  | CN(C)C(=O)N1CCC(c2ccc(Nc3ncc(C(N)=O)c(NC4CC4)n3)cc2)CC1 [Compound 5, 4-(cyclopropylamino)-2-((4-(1-(dimethylcarbamoyl)piperidin-4-yl)phenyl)amino)pyrimidine-5-carboxamide] |
| +++ (0.10 uM<IC50<0.01 uM) | ++++ (0.01 uM<IC50<0.001 uM) | ++++ (0.01 uM<IC50<0.001 uM) | +++ (0.10 uM<IC50<0.01 uM) |  | NC(=O)c1cnc(Nc2ccc(C3CCN(C4CCOCC4)CC3)cc2)nc1NC1CC1 [Compound 14, 4-(cyclopropylamino)-2-((4-(1-(tetrahydro-2H-pyran-4-yl)piperidin-4-yl)phenyl)amino)pyrimidine-5-carboxamide] |
|  | ++ (1.0 uM<IC50<0.10 uM) | ++ (1.0 uM<IC50<0.10 uM) | ++ (1.0 uM<IC50<0.10 uM) | > 1 | NC(=O)c1cnc(Nc2ccc(C3CCNCC3)cc2)cc1NC1CC1 [Compound 63, 4-(cyclopropylamino)-6-((4-(piperidin-4-yl)phenyl)amino)nicotinamide] |
| ++ (1.0 uM<IC50<0.10 uM) | +++ (0.10 uM<IC50<0.01 uM) | +++ (0.10 uM<IC50<0.01 uM) | +++ (0.10 uM<IC50<0.01 uM) |  | CCOC(=O)N1CCC(c2ccc(Nc3ncc(C(N)=O)c(NC4CC4)n3)cc2)CC1 [Compound 11, ethyl 4-(4-((5-carbamoyl-4-(cyclopropylamino)pyrimidin-2-yl)amino)phenyl)piperidine-1-carboxylate] |
